From patent publication US8124624B2, “Substituted sulfonamide compounds” (Gruenenthal GmbH, priority 2008, dated 2012)
Structures can show the parent of a compound that is named as a salt. Where two headings read alike, the source gives them in different places.

Tests used:
[1] = biological target: T1, human B1R (Homo sapiens, UniProt P46663); assay: FLIPR Ca2+ influx assay, B1R antagonism, human (hB1R CHO K1 cells); assay type: cell-based
T1 construct: expressed in transfected cells; host or cells: CHO K1 cells (hB1R cells)
T1 sequence (P46663 1-353): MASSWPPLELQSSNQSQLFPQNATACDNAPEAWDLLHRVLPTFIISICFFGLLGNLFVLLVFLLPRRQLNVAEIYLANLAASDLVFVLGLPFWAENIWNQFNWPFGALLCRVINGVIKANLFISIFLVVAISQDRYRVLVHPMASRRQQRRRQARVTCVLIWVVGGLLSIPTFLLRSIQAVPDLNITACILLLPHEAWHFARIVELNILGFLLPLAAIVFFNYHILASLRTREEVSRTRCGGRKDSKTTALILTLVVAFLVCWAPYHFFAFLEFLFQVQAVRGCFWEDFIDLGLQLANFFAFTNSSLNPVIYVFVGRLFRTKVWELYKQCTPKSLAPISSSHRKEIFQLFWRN
Protocol: (§1) The agonistic or antagonistic action of substances can be quantified on the bradykinin receptor 1 (B1R) of the species human and rat using ectopically expressing cell lines (CHO K1 cells) and with the aid of a Ca^2+-sensitive dye (Fluo-4) using a fluorescent imaging plate reader (FLIPR). The indication in % activation is based on the Ca^2+ signal after addition of Lys-Des-Arg^9-bradykinin (0.5 nM) or Des-Arg^9-bradykinin (100 nM). Antagonists lead to suppression of the Ca^2+ influx after the addition of the agonist. % Inhibition compared with the maximum achievable inhibition is indicated.
(§2) The agonistic or antagonistic action of substances can be determined on the bradykinin receptor 1 (B1R) of the species human and rat using the following assay. According to this assay, the Ca^2+ influx through the channel is quantified with the aid of a Ca^2+-sensitive dye (Fluo-4 type, Molecular Probes Europe BV, Leiden, Netherlands) using a Fluorescent Imaging Plate Reader (FLIPR, Molecular Devices, Sunnyvale, USA).
(§3) Chinese hamster ovary cells (CHO K1 cells) which have been stably transfected with the human B1R gene (hB1R cells) or with the B1R gene of the rat (rB1R cells) are used. For functional studies, the cells are plated out on black 96-well plates having a clear base (BD Biosciences, Heidelberg, Germany or Greiner, Frickenhausen, Germany) in a density of 20,000-35,000 cells/well. The cells are incubated overnight at 37° C. and with 5% CO2 in culture medium (hB1R cells: Nutrient Mixture Ham's F12, Gibco Invitrogen GmbH, Karlsruhe, Germany or DMEM, Sigma-Aldrich, Taufkirchen, Germany; rB1R cells: D-MEM/F12, Gibco Invitrogen GmbH, Karlsruhe, Germany), with 10 vol. % FBS (fetal bovine serum, Gibco Invitrogen GmbH, Karlsruhe, Germany or PAN Biotech GmbH, Aidenbach, Germany).
(§4) On the following day, the cells are loaded for 60 minutes at 37° C. with 2.13 μM Fluo-4 (Molecular Probes Europe BV, Leiden, Netherlands) in HBSS buffer (Hank's buffered saline solution, Gibco Invitrogen GmbH, Karlsruhe, Germany) […] (Sigma-Aldrich, Taufkirchen, Germany) and 10 mM HEPES (Sigma-Aldrich, Taufkirchen, Germany). The plates are then washed twice with HBSS buffer, and HBSS buffer additionally containing 0.1% BSA (bovine serum albumin; Sigma-Aldrich, Taufkirchen, Germany), 5.6 mM glucose and 0.05% gelatin (Merck KGaA, Darmstadt, Germany) is added to the plates. After incubation for a further 20 minutes at room temperature, the plates are inserted into the FLIPR for Ca^2+ measurement.
(§5) Alternatively, washing is carried out with buffer A (15 mM HEPES, 80 mM NaCl, 5 mM KCl, 1.2 mM CaCl2, 0.7 mM MgSO4, 2 g/l glucose, 2.5 mM probenecid) followed by loading with buffer A with added 2.5 μM Fluo-4 and 0.025% Pluronic F127 (Sigma-Aldrich, Taufkirchen, Germany). The cells are then washed twice with buffer A and incubated for 30 minutes at room temperature with buffer A additionally containing 0.05% BSA and 0.05% gelatin and are then inserted into the FLIPR for Ca^2+ measurement.
(§6) The Ca^2+-dependent fluorescence is measured before and after the addition of substances (λex=488 nm, λem=540 nm). Quantification is carried out by measuring the highest fluorescence intensity (FC, fluorescence counts) over time.
(§7) The FLIPR protocol consists of two substance additions. Test substances (10 μM) are first pipetted onto the cells and the Ca^2+ influx is compared with the control (hB1R: Lys-Des-Arg^9-bradykinin >=50 nM; rB1R: Des-Arg^9-bradykinin 10 μM). This gives the activation in %, based on the Ca^2+ signal after addition of Lys-Des-Arg^9-bradykinin (>=50 nM) or Des-Arg^9-bradykinin (10 μM). After 10-20 minutes' incubation, Lys-Des-Arg^9-bradykinin (hB1R) or Des-Arg^9-bradykinin (rB1R) is applied in the concentration of the EC80, and the influx of Ca^2+ is likewise determined. Antagonists lead to suppression of the Ca^2+ influx. The % inhibition compared with the maximum achievable inhibition is calculated. […]

[2] = biological target: T2, B1R of the rat (Rattus norvegicus, UniProt P97583); assay: FLIPR Ca2+ influx assay, B1R antagonism, rat (rB1R CHO K1 cells); assay type: cell-based
T2 construct: expressed in transfected cells; host or cells: CHO K1 cells (rB1R cells)
T2 sequence (P97583 1-337): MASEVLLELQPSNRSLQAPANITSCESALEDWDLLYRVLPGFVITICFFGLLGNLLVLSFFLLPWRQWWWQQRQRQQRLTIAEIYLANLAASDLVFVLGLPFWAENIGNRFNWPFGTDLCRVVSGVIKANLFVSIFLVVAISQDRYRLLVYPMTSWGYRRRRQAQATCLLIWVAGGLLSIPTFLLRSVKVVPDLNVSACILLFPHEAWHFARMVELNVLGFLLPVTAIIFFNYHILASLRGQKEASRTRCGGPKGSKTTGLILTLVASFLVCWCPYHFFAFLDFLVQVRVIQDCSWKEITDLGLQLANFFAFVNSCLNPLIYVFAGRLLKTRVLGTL
Protocol: as §1, §2, §3, §4, §5, §6, §7

[3] = test substance 10 μM, CHO K1 cells stably transfected with human B1R, agonist Lys-Des-Arg9-bradykinin at EC80, % inhibition compared with maximum achievable inhibition, read-out: B1R antagonism, human [10 μM] % inhibition
[4] = test substance 10 μM, CHO K1 cells stably transfected with rat B1R, agonist Des-Arg9-bradykinin at EC80, % inhibition compared with maximum achievable inhibition, read-out: B1R antagonism, rat [10 μM] % inhibition
[5] = test substance 10 μM, CHO K1 cells stably transfected with human B1R, agonist Lys-Des-Arg9-bradykinin at EC80, % inhibition compared with maximum achievable inhibition
[6] = test substance 10 μM, CHO K1 cells stably transfected with rat B1R, agonist Des-Arg9-bradykinin at EC80, % inhibition compared with maximum achievable inhibition

SMILES | inhibition at 10 µM [1, 3] | inhibition at 10 µM [2, 4] | further results
Cc1cccc(Cl)c1S(=O)(=O)N(CCOCC(=O)N1CCC(CCCN2CCCC2)(c2cccc(C(F)(F)F)c2)CC1)C1CC1 [Example 78, 2-Chloro-N-cyclopropyl-6-methyl-N-[2-[2-oxo-2-[4-(3-pyrrolidin-1-yl-propyl)-4-[3-(trifluoromethyl)phenyl]-piperidin-1-yl]-ethoxy]-ethyl]-benzenesulfonic acid amide] | 97% | 92% | –
COc1cc(C)c(S(=O)(=O)N(C)CCOCC(=O)N2CCC(CCCN3CCCC3)(c3cccnc3)CC2)c(C)c1 [Example 29, 4-Methoxy-N,2,6-trimethyl-N-[2-[2-oxo-2-[4-pyridin-3-yl-4-(3-pyrrolidin-1-yl-propyl)-piperidin-1-yl]-ethoxy]-ethyl]-benzenesulfonic acid amide] | – | – | B1R antagonism, human [10 μM] % inhibition [1, 5]: 100%; B1R antagonism, rat [10 μM] % inhibition [2, 6]: 101%
CN(C)CCCC1(c2cccnc2)CCN(C(=O)CC(NS(=O)(=O)c2ccc3ccccc3c2)c2ccccc2)CC1 (centres unmarked) [Example 20, N-(3-(4-(3-(Dimethylamino)propyl)-4-(pyridin-3-yl)piperidin-1-yl)-3-oxo-1-phenylpropyl)naphthalene-2-sulfonamide] | 57% | 94% | –
COc1cc(C)c(S(=O)(=O)N(CCOCC(=O)N2CCC(CCCN3CCCC3)(c3cccnc3)CC2)c2ccccc2)c(C)c1 [Example 48, 4-Methoxy-2,6-Dimethyl-N-[2-[2-oxo-2-[4-pyridin-3-yl-4-(3-pyrrolidin-1-yl-propyl)-piperidin-1-yl]-ethoxy]-ethyl]-N-phenyl-benzenesulfonic acid amide] | 100% | 103% | –
CN(C)CCCC1(c2cccnc2)CCN(C(=O)CC2CCCCN2S(=O)(=O)c2cccc(C(F)(F)F)c2)CC1 (centres unmarked) [Example 24, 1-(4-(3-(Dimethylamino)propyl)-4-(pyridin-3-yl)piperidin-1-yl)-2-(1-(3-(trifluoromethyl)phenylsulfonyl)piperidin-2-yl)ethanone] | 38% | 60% | –
Cc1cc(S(=O)(=O)N2CCCCC2CCC(=O)N2CCC(CCN(C)C)(c3cccnc3)CC2)c(C)cc1Cl (centres unmarked) [Example 11, 3-(1-(4-Chloro-2,5-dimethylphenylsulfonyl)piperidin-2-yl)-1-(4-(2-(dimethylamino)ethyl)-4-(pyridin-3-yl)piperidin-1-yl)propan-1-one] | 102% | 101% | –
COc1cc(C)c(S(=O)(=O)N(CCOCC(=O)N2CCC(CCCN3CCCC3)(c3cccnc3)CC2)Cc2ccccc2)c(C)c1 [Example 38, N-Benzyl-4-Methoxy-2,6-dimethyl-N-[2-[2-oxo-2-[4-pyridin-3-yl-4-(3-pyrrolidin-1-yl-propyl)-piperidin-1-yl]-ethoxy]-ethyl]-benzenesulfonic acid amide] | – | – | B1R antagonism, human [10 μM] % inhibition [1, 5]: 100%; B1R antagonism, rat [10 μM] % inhibition [2, 6]: 101%
CN(C)CCCC1(c2cccnc2)CCN(C(=O)COCC2CCc3ccccc3N2S(=O)(=O)c2ccc(Cl)c(Cl)c2)CC1 (centres unmarked) [Example 21, 2-((1-(3,4-Dichlorophenylsulfonyl)-1,2,3,4-tetrahydroquinolin-2-yl)methoxy)-1-(4-(3-(dimethylamino)propyl)-4-(pyridin-3-yl)piperidin-1-yl)ethanone] | 56% | 98% | –
COc1cc(C)c(S(=O)(=O)N2CCCCC2COCC(=O)N2CCC(CCN3CCCC3)(c3cccnc3)CC2)c(C)c1 (centres unmarked) [Example 2, 2-((1-(4-Methoxy-2,6-dimethylphenylsulfonyl)piperidin-2-yl)methoxy)-1-(4-(pyridin-3-yl)-4-(2-(pyrrolidin-1-yl)ethyl)piperidin-1-yl)ethanone] | – | – | inhibition at 10 µM ([1]; CHO-K1, read-out: B1R antagonism, human [10 μM] % inhibition): 103%; inhibition at 10 µM ([2]; CHO-K1, read-out: B1R antagonism, rat [10 μM] % inhibition): 102%
COc1cc(C)c(S(=O)(=O)N2c3ccccc3CCC2COCC(=O)N2CCC(CCCN3CCCC3)(c3cccnc3)CC2)c(C)c1 (centres unmarked) [Example 53, 2-[[1-[(4-Methoxy-2,6-dimethyl-phenyl)sulfonyl]-1,2,3,4-tetrahydro-quinolin-2-yl]-methoxy]-1-[4-pyridin-3-yl-4-(3-pyrrolidin-1-yl-propyl)-piperidin-1-yl]-ethanone] | 100% | 102% | –
Cc1cc(S(=O)(=O)N2CCCCC2CCC(=O)N2CCC(CCCN(C)C)(c3cccnc3)CC2)c(C)cc1Cl (centres unmarked) [Example 19, 3-(1-(4-Chloro-2,5-dimethylphenylsulfonyl)piperidin-2-yl)-1-(4-(3-(dimethylamino)propyl)-4-(pyridin-3-yl)piperidin-1-yl)propan-1-one] | 82% | 98% | –
O=C(COCC1CCc2ccccc2N1S(=O)(=O)c1ccc(Cl)c(Cl)c1)N1CCC(CCCN2CCCC2)(c2cccnc2)CC1 (centres unmarked) [Example 18, 2-((1-(3,4-Dichlorophenylsulfonyl)-1,2,3,4-tetrahydroquinolin-2-yl)methoxy)-1-(4-(pyridin-3-yl)-4-(3-(pyrrolidin-1-yl)propyl)piperidin-1-yl)ethanone] | 62% | 102% | –
COc1cc(C)c(S(=O)(=O)N2CCCC[C@H]2COCC(=O)N2CCC(CCCN3CCCC3)(c3cccnc3)CC2)c(C)c1 [Example 81, 2-[[(2S)-1-[(4-Methoxy-2,6-dimethyl-phenyl)sulfonyl]-piperidin-2-yl]-methoxy]-1-[4-pyridin-3-yl-4-(3-pyrrolidin-1-yl-propyl)-piperidin-1-yl]-ethanone hydrochloride] | 100% | 102% | –
